Consider 2 molecules from PMC8398081, “Antioxidant Activity, α-Glucosidase Inhibition and UHPLC–ESI–MS/MS Profile of Shmar (Arbutus pavarii Pamp)” (Plants, 2021).

Molecules are shown by their SMILES.

The nature of experiment [1]: Ferric reducing antioxidant power (FRAP) assay. To be noted: 37 °C, 30 min, 593 nm; FeSO4 standard curve; mean ± SD, n=3. The procedure:
The FRAP of extracts and fractions were examined according to Kadum et al. method with slight modifications. […] A volume of 10 μL of methanol extract or fractions was transferred into 96-well microplates, followed by addition of 200 μL FRAP reagent and incubation at 37 °C for 30 min. The absorbance was checked through microplate reader (SPECTRAmax PLUS) at 593 nm. The absorbances of ferrous sulfate solution (FeSO4·7H2O), with a range of concentrations between 0.1 and 1 mM were used for plotting a calibration curve. The ascorbic acid was used as positive control and FRAP was presented as mM Fe (II)/g extract for extracts and mM Fe (II)/g fraction for fractions.

Experiment [2] in a line: DPPH free radical scavenging assay. The conditions noted are these: 30 min in dark, 517 nm; mean ± SD, n=3. On the procedure:
The DPPH assay was conducted in accordance with Lee et al. method. Initially, 100 µL of DPPH (5.9 mg in 100 mL ethanol) was mixed with 50 µL of the extracts or fractions. The mixtures were then kept in dark for 30 min at room temperature. The absorbance was measured using microplate reader at 517 nm. Quercetin was used as a positive control in the assay. The scavenging activity was calculated using the equation Scavenging Activity (%) = [(Ac – As)/Ac] × 100%, where (Ac) is the absorbance of the blank reagent while (As) is the absorbance of the tested samples. The analysis was performed in triplicates and the results were described as IC50 value.

Regarding `O=C1O[C@H]([C@@H](O)CO)C(O)=C1O` [Ascorbic acid], the FRAP in experiment [1] is given as 180.64 ± 0.01 mmol Fe (II)/g Extract.
For the molecule `O=c1c(O)c(-c2ccc(O)c(O)c2)oc2cc(O)cc(O)c12` [Quercetin], the “DPPH IC50” value in experiment [2] came out at 8.6 ± 0.70 µg/mL.
